Experimental findings from ChEMBL document CHEMBL1201862, “PubChem BioAssay data set” (2004) are described below.

Activity calls are given as the source filed them.

Test system in the first test: not listed separately
Description: cells.
Conditions: not given
It is filed as functional, cell-based.
The term EC50 denotes the midpoint of the concentration-response curve. Read a low EC50 as greater potency. As for `COc1ccc(/C=N/Nc2ncnc3sc4c(c23)CCCC4)cc1OC`, the EC50 was > 350 µM (not active).
Same read-out and setting: in the case of `CCN1CCN(c2ncnc3ccc(Br)cc23)CC1` it was > 350 µM (not active).

Test system in the next test: not listed separately
Description: P. falciparum Dd2 growth inhibitors, dose response, SYBR Green, cherry-picked samples (AID 1159567).
Conditions: not given
The test is classed as functional, cell-based.
A word on the AC50: it is the concentration giving half of the maximal activity seen. Consider `COc1cccc(C#Cc2ccc([C@@H]3[C@@H](C#N)N(C(=O)c4ccccn4)[C@H]3CO)cc2)c1`, for which the AC50 is 3.29 µM (active).
Same read-out and setting: in the case of `C[C@@H]1CN([C@H](C)CO)C(=O)c2c(c3ccccc3n2C)-c2ccccc2CO[C@H]1CN(C)S(=O)(=O)c1ccsc1` it was 4.22 µM (active).
Consider `COc1ccc(C#Cc2ccc3c(c2)[C@@H]2[C@@H](CCN2C(=O)C2CCCC2)[C@H](CO)N3)cc1`, for which the AC50 was 3.97 µM (active).

Another test concerns the target T1, Aminopeptidase N (Plasmodium falciparum FcB1/Columbia, UniProt O96935).
T1 sequence (O96935 whole entry): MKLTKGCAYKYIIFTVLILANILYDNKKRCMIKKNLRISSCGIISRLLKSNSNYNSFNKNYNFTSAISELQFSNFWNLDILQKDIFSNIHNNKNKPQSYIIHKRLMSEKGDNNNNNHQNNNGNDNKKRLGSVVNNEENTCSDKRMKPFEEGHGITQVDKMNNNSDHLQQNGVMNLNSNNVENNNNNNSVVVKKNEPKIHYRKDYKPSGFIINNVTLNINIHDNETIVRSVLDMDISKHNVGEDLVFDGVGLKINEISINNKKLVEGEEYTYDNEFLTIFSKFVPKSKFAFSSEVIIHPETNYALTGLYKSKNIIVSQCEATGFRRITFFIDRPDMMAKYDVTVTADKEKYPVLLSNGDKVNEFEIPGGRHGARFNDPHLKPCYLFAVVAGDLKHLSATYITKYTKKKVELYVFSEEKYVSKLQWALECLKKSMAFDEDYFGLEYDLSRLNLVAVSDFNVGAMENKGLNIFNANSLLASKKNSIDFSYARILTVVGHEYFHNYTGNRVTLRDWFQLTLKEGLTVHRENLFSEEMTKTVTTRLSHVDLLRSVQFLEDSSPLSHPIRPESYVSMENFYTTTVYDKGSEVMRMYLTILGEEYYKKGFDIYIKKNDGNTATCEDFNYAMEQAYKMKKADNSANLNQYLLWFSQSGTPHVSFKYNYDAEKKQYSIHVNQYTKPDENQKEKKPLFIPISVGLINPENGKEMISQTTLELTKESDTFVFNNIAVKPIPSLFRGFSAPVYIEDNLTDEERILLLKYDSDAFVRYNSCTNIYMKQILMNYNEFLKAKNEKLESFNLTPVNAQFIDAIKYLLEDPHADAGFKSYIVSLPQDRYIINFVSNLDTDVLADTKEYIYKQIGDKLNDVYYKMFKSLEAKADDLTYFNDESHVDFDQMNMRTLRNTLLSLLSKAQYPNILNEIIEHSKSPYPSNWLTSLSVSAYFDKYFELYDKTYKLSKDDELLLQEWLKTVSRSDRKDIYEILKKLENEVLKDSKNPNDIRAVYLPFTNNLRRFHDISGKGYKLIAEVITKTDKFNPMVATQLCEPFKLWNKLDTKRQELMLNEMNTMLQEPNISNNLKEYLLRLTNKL
Description: P. falciparum M1AAP inhibitors, biochemical, fluorogenic H-Leu-NHMec substrate, 1536-well (AID 1445). Further details: species or system Plasmodium falciparum 3D7, 3D7.
Conditions: not given
For orientation: IC50 means the midpoint of a concentration-inhibition curve. For the compound `CCCCc1cc(=O)oc2c(CN(CC)CC)c(O)c(Cl)cc12`, the IC50 is 41.5 µM (active).
Same read-out and setting: in the case of `Cc1ccc(S(=O)(=O)NC2=NC(=O)/C(=C\c3ccco3)S2)cc1` it was 94 µM (active).
For `O=C(O)c1ccc(S(=O)(=O)Nc2ccc(O)c(Sc3nc4ccccc4s3)c2)cc1`, the IC50 was 104 µM (active).
On the same count and under the same terms, in the case of `Cc1ccc(C)c(CS(=O)(=O)c2cn(CC(=O)N3CCCCC3)c3ccccc23)c1` it was 94.5 µM (active); in that of `O=C(CSc1nc(O)c2c(C(F)(F)F)cc(-c3cccs3)nc2n1)NCc1ccco1`, 103 µM (active).
The same measure, in the same setting: with `O=C(O)c1ccccc1-c1nc(-c2ccccc2)c(-c2ccccc2)[nH]1` the figure was 46.6 µM (active).
Take `CC(=O)Nc1ccc(S(=O)(=O)Oc2cccc(/C=N/NC3=NC(=O)C(CC(=O)O)S3)c2)cc1` (configuration not stated): the IC50 is 52.8 µM (active).

Another test deals with INS1. Put plainly: beta cell apoptosis inhibitors, cytokine rescue, dose response, luminescence, retest (AID 449756).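 Note: cell death triggered by IL-1 beta plus TNF-alpha plus IFN-gamma mixture; protective hits raise ATP signal compared with cytokine alone wells.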 The test is classed as functional, cell-based. The settings on record: Rattus norvegicus.
For `CC(=O)N1CCN(c2ccc(Oc3ccc([N+](=O)[O-])c(C(F)(F)F)c3)cc2)CC1`, the AC50 is 5.74 µM (active).

Test system in another test: not listed separately
Put plainly: cells. The test is classed as functional, cell-based.
Conditions: not given
This is another data set of the same source.
As for `COc1ccc(/C=N/Nc2ncnc3sc4c(c23)CCCC4)cc1OC`, the EC50 is recorded as > 350 µM (not active).
On to `CCN1CCN(c2ncnc3ccc(Br)cc23)CC1`, for which the EC50 was > 350 µM (not active).

For the next test, the target named is FAD-linked sulfhydryl oxidase ALR (Homo sapiens, UniProt P55789). Description: inhibitors of human ALR sulfhydryl oxidase, dose response, biochemical, H2O2 detection, luminescence, cherry-pick (AID 493248).
FAD-linked sulfhydryl oxidase ALR, sequence (P55789 whole entry): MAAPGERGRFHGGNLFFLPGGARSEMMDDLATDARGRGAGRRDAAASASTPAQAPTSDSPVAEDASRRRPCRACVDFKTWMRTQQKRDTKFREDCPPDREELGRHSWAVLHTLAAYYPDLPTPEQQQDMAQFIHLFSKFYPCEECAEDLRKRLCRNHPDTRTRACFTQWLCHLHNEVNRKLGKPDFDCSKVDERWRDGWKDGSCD
Conditions: not given
As to `O=C(O)c1ccc(S(=O)(=O)Nc2ccc(O)c(Sc3nc4ccccc4s3)c2)cc1`, the AC50 is 0.236 µM (active).

Test system in the next test: not listed separately
Description: microbe, parasite or virus in culture. The settings on record: Mycobacterium tuberculosis. It is filed as functional.
Consider `O=C(NC1CCN(Cc2ccccc2)CC1)c1cccc(S(=O)(=O)Nc2ccc(SC(F)F)cc2)c1`, for which the CC50 is 32.7 µM (active).
The same measure, in the same setting: with `CCCOc1ccc(C(=O)c2nc3c(n2O)CCCCC3)cc1` the figure was > 40 µM (active); with `Cc1nc(NCCc2ccccc2)c2oc3ccccc3c2n1`, 31.6 µM (active).
Still for that read-out and setting: in the case of `CC(=O)N1CCN(c2ccc(Oc3ccc([N+](=O)[O-])c(C(F)(F)F)c3)cc2)CC1` it was > 40 µM (active); in that of `O=C(/C=C/c1cccnc1)c1cccc(O)c1`, 15.6 µM (active); in that of `CCOC(=O)CCCc1ccc(/C(C)=N/NC(N)=S)cc1`, > 40 µM (active).
